# Data taken from BigSolDB 2.1.
compound,measurement,setting,value
N#Cc1ccc(C(c2ccc(C#N)cc2)n2cncn2)cc1,solubility (mole fraction),"in THF, 283.15 K",0.0164
same,solubility (mole fraction),"in THF, 288.15 K",0.0184
same,solubility (mole fraction),"in THF, 293.15 K",0.0206
same,solubility (mole fraction),"in THF, 298.15 K",0.0229
same,solubility (mole fraction),"in THF, 303.15 K",0.0254
same,solubility (mole fraction),"in THF, 308.15 K",0.0281
same,solubility (mole fraction),"in THF, 313.15 K",0.0309
same,solubility (mole fraction),"in THF, 318.15 K",0.034
same,solubility (mole fraction),"in THF, 323.15 K",0.0373
same,solubility (mole fraction),"in acetone, 283.15 K",0.0147
same,solubility (mole fraction),"in acetone, 288.15 K",0.0168
same,solubility (mole fraction),"in acetone, 293.15 K",0.019
same,solubility (mole fraction),"in acetone, 298.15 K",0.0214
same,solubility (mole fraction),"in acetone, 303.15 K",0.0241
same,solubility (mole fraction),"in acetone, 308.15 K",0.027
same,solubility (mole fraction),"in acetone, 313.15 K",0.0301
same,solubility (mole fraction),"in acetone, 318.15 K",0.0335
same,solubility (mole fraction),"in acetone, 323.15 K",0.0371
same,solubility (mole fraction),"in acetonitrile, 283.15 K",0.00638
same,solubility (mole fraction),"in acetonitrile, 288.15 K",0.0077
same,solubility (mole fraction),"in acetonitrile, 293.15 K",0.00923
same,solubility (mole fraction),"in acetonitrile, 298.15 K",0.011
same,solubility (mole fraction),"in acetonitrile, 303.15 K",0.0131
same,solubility (mole fraction),"in acetonitrile, 308.15 K",0.0154
same,solubility (mole fraction),"in acetonitrile, 313.15 K",0.018
same,solubility (mole fraction),"in acetonitrile, 318.15 K",0.021
same,solubility (mole fraction),"in acetonitrile, 323.15 K",0.0244
same,solubility (mole fraction),"in ethanol, 283.15 K",0.000456
same,solubility (mole fraction),"in ethanol, 288.15 K",0.000586
same,solubility (mole fraction),"in ethanol, 293.15 K",0.000748
same,solubility (mole fraction),"in ethanol, 298.15 K",0.000946
same,solubility (mole fraction),"in ethanol, 303.15 K",0.00119
same,solubility (mole fraction),"in ethanol, 308.15 K",0.00148
same,solubility (mole fraction),"in ethanol, 313.15 K",0.00183
same,solubility (mole fraction),"in ethanol, 318.15 K",0.00225
same,solubility (mole fraction),"in ethanol, 323.15 K",0.00275
same,solubility (mole fraction),"in ethyl acetate, 283.15 K",0.00527
same,solubility (mole fraction),"in ethyl acetate, 288.15 K",0.00609
same,solubility (mole fraction),"in ethyl acetate, 293.15 K",0.007
same,solubility (mole fraction),"in ethyl acetate, 298.15 K",0.00802
same,solubility (mole fraction),"in ethyl acetate, 303.15 K",0.00914
same,solubility (mole fraction),"in ethyl acetate, 308.15 K",0.0104
same,solubility (mole fraction),"in ethyl acetate, 313.15 K",0.0117
same,solubility (mole fraction),"in ethyl acetate, 318.15 K",0.0132
same,solubility (mole fraction),"in ethyl acetate, 323.15 K",0.0148
same,solubility (mole fraction),"in methanol, 283.15 K",0.00108
same,solubility (mole fraction),"in methanol, 288.15 K",0.00133
same,solubility (mole fraction),"in methanol, 293.15 K",0.00163
same,solubility (mole fraction),"in methanol, 298.15 K",0.00198
same,solubility (mole fraction),"in methanol, 303.15 K",0.00239
same,solubility (mole fraction),"in methanol, 308.15 K",0.00287
same,solubility (mole fraction),"in methanol, 313.15 K",0.00342
same,solubility (mole fraction),"in methanol, 318.15 K",0.00406
same,solubility (mole fraction),"in methanol, 323.15 K",0.00479
same,solubility (mole fraction),"in methyl acetate, 283.15 K",0.0105
same,solubility (mole fraction),"in methyl acetate, 288.15 K",0.0119
same,solubility (mole fraction),"in methyl acetate, 293.15 K",0.0135
same,solubility (mole fraction),"in methyl acetate, 298.15 K",0.0151
same,solubility (mole fraction),"in methyl acetate, 303.15 K",0.017
same,solubility (mole fraction),"in methyl acetate, 308.15 K",0.019
same,solubility (mole fraction),"in methyl acetate, 313.15 K",0.0211
same,solubility (mole fraction),"in methyl acetate, 318.15 K",0.0234
same,solubility (mole fraction),"in methyl acetate, 323.15 K",0.0259
same,solubility (mole fraction),"in n-propanol, 283.15 K",0.000351
same,solubility (mole fraction),"in n-propanol, 288.15 K",0.000461
same,solubility (mole fraction),"in n-propanol, 293.15 K",0.0006
same,solubility (mole fraction),"in n-propanol, 298.15 K",0.000773
same,solubility (mole fraction),"in n-propanol, 303.15 K",0.000989
same,solubility (mole fraction),"in n-propanol, 308.15 K",0.00125
same,solubility (mole fraction),"in n-propanol, 313.15 K",0.00158
same,solubility (mole fraction),"in n-propanol, 318.15 K",0.00197
same,solubility (mole fraction),"in n-propanol, 323.15 K",0.00245
